Measured values taken from US8858967B2, “Dermatological cream-gels containing avermectin compounds” (Galderma S.A., priority 2004, dated 2014).

Experiment: Maximum solubility of ivermectin in solvents
Type: physicochemical
Excerpt: By way of example of a solvent and/or a propenetrating agent for the ivermectin active agent, representative are propylene glycol, alcohols such as ethanol, isopropanol, butanol, benzyl alcohol, N-methyl-2-pyrrolidone or DMSO, polysorbate 80; phenoxyethanol, and mixtures thereof.

Substance: Ivermectin
- Maximum % solubility of ivermectin in the solvent under consideration (weight/weight) (solvent N-methyl-2-pyrrolidone): 58.13 % (weight/weight)
- Maximum % solubility of ivermectin in the solvent under consideration (weight/weight) (solvent propylene glycol/oleic acid (4 parts/2 parts)): 27.31 % (weight/weight)
- Maximum % solubility of ivermectin in the solvent under consideration (weight/weight) (solvent propylene glycol/polysorbate 80/phenoxyethanol (4 parts/1 part/1 part)): 28.63 % (weight/weight)
